Results: PubChem BioAssay AID248 (DTP/NCI, 2004)
Several values for one entry are separate records, joined by “and”; a condition that tells them apart may be missing. Equal values may be shown once. Toxic doses and inconclusive results are not listed. Rule as the data show it: active = T/C of 150% or more; inactive = T/C below 125%.

Tested on: L1210 leukemia ip in BDF1 mice, survival T/C
Assay: NCI In Vivo Anticancer Drug Screen. Data for tumor model L1210 Leukemia (intraperitoneal) in B6D2F1 (BDF1) mice
Conditions: higher = longer survival
How it was run: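 Mice bearing the transplanted tumor received compound or vehicle. Survival of the treated group was divided by that of the vehicle-treated control group to give the ratio.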

[1] = endpoint: mean survival time, dose: 100.0 mg/kg/injection, schedule: Q01DX009 (ip), vehicle: Klucel (hydroxypropylcellulose) (HPC)
[2] = endpoint: mean survival time, dose: 100.0 mg/kg/injection, schedule: Q04DX003 (ip), vehicle: Klucel (hydroxypropylcellulose) (HPC)
[3] = endpoint: mean survival time, dose: 200.0 mg/kg/injection, schedule: Q01DX009 (ip), vehicle: Klucel (hydroxypropylcellulose) (HPC)
[4] = endpoint: mean survival time, dose: 200.0 mg/kg/injection, schedule: Q04DX003 (ip), vehicle: Klucel (hydroxypropylcellulose) (HPC)
[5] = endpoint: mean survival time, dose: 400.0 mg/kg/injection, schedule: Q01DX009 (ip), vehicle: Klucel (hydroxypropylcellulose) (HPC)
[6] = endpoint: mean survival time, dose: 400.0 mg/kg/injection, schedule: Q04DX003 (ip), vehicle: Klucel (hydroxypropylcellulose) (HPC)
[7] = endpoint: mean survival time, dose: 100.0 mg/kg/injection, schedule: Q01DX001 (ip), vehicle: carboxymethylcellulose (CMC)
[8] = endpoint: mean survival time, dose: 100.0 mg/kg/injection, schedule: Q04DX003 (ip), vehicle: carboxymethylcellulose (CMC)
[9] = endpoint: mean survival time, dose: 200.0 mg/kg/injection, schedule: Q01DX001 (ip), vehicle: carboxymethylcellulose (CMC)
[10] = endpoint: mean survival time, dose: 200.0 mg/kg/injection, schedule: Q04DX003 (ip), vehicle: carboxymethylcellulose (CMC)
[11] = endpoint: mean survival time, dose: 400.0 mg/kg/injection, schedule: Q01DX001 (ip), vehicle: carboxymethylcellulose (CMC)
[12] = endpoint: mean survival time, dose: 400.0 mg/kg/injection, schedule: Q04DX003 (ip), vehicle: carboxymethylcellulose (CMC)
[13] = endpoint: mean survival time, dose: 100.0 mg/kg/injection, schedule: Q01DX009 (ip), vehicle: saline
[14] = endpoint: mean survival time, dose: 100.0 mg/kg/injection, schedule: Q04DX002 (ip), vehicle: saline
[15] = endpoint: mean survival time, dose: 200.0 mg/kg/injection, schedule: Q01DX009 (ip), vehicle: saline
[16] = endpoint: mean survival time, dose: 200.0 mg/kg/injection, schedule: Q04DX002 (ip), vehicle: saline
[17] = endpoint: mean survival time, dose: 400.0 mg/kg/injection, schedule: Q04DX002 (ip), vehicle: saline
[18] = endpoint: mean survival time, dose: 100.0 mg/kg/injection, schedule: Q01DX001 (ip), vehicle: saline
[19] = endpoint: mean survival time, dose: 200.0 mg/kg/injection, schedule: Q01DX001 (ip), vehicle: saline
[20] = endpoint: mean survival time, dose: 400.0 mg/kg/injection, schedule: Q01DX001 (ip), vehicle: saline
[21] = endpoint: mean survival time, dose: 100.0 mg/kg/injection, schedule: Q04DX002 (ip), vehicle: Klucel (hydroxypropylcellulose) (HPC)
[22] = endpoint: mean survival time, dose: 200.0 mg/kg/injection, schedule: Q04DX002 (ip), vehicle: Klucel (hydroxypropylcellulose) (HPC)
[23] = endpoint: mean survival time, dose: 400.0 mg/kg/injection, schedule: Q04DX002 (ip), vehicle: Klucel (hydroxypropylcellulose) (HPC)
[24] = endpoint: mean survival time, dose: 50.0 mg/kg/injection, schedule: Q01DX009 (ip), vehicle: saline with Tween-80

Measured: T/C

Cc1nc(Cl)cc(=O)[nH]1
inactive: [1] 90 % of control | [2] 101 % of control | [3] 97 % of control | [4] 90 % of control | [5] 90 % of control | [6] 91 % of control

CCC/C(=N\NC(=O)c1ccccc1O)c1ccccc1
inactive: [7] 105 % of control | endpoint: mean survival time, dose: 100.0 mg/kg/injection, schedule: Q01DX009 (ip), vehicle: carboxymethylcellulose (CMC) 102 % of control and 89 % of control | endpoint: mean survival time, dose: 100.0 mg/kg/injection, schedule: Q04DX002 (ip), vehicle: carboxymethylcellulose (CMC) 95 % of control and 107 % of control | [8] 93 % of control | [9] 100 % of control | endpoint: mean survival time, dose: 200.0 mg/kg/injection, schedule: Q01DX009 (ip), vehicle: carboxymethylcellulose (CMC) 94 % of control and 89 % of control | endpoint: mean survival time, dose: 200.0 mg/kg/injection, schedule: Q04DX002 (ip), vehicle: carboxymethylcellulose (CMC) 98 % of control and 102 % of control | [10] 89 % of control | [11] 100 % of control | endpoint: mean survival time, dose: 400.0 mg/kg/injection, schedule: Q01DX009 (ip), vehicle: carboxymethylcellulose (CMC) 94 % of control and 98 % of control | endpoint: mean survival time, dose: 400.0 mg/kg/injection, schedule: Q04DX002 (ip), vehicle: carboxymethylcellulose (CMC) 98 % of control and 103 % of control | [12] 98 % of control

Cn1c(C=O)cc2ccccc21
inactive: [7] 90 % of control | [13] 94 % of control | [14] 110 % of control | [9] 98 % of control | [15] 97 % of control | [16] 104 % of control | [11] 102 % of control | [17] 100 % of control

C=CCn1c(/N=C\N(C)C)cc(=O)[nH]c1=O
inactive: [1] 103 % of control | [2] 97 % of control | [3] 107 % of control | [4] 97 % of control | [5] 100 % of control | [6] 89 % of control

C[n+]1cccc(C#N)c1
inactive: endpoint: mean survival time, dose: 37.5 mg/kg/injection, schedule: Q04DX003 (ip), vehicle: saline 100 % of control | endpoint: mean survival time, dose: 75.0 mg/kg/injection, schedule: Q01DX001 (ip), vehicle: saline 106 % of control | endpoint: mean survival time, dose: 75.0 mg/kg/injection, schedule: Q04DX003 (ip), vehicle: saline 107 % of control | endpoint: mean survival time, dose: 150.0 mg/kg/injection, schedule: Q01DX001 (ip), vehicle: saline 106 % of control | endpoint: mean survival time, dose: 150.0 mg/kg/injection, schedule: Q04DX003 (ip), vehicle: saline 91 % of control

c1ccc(Cc2cncc(Cc3ccccc3)n2)cc1
inactive: [2] 101 % of control | [4] 97 % of control | [6] 98 % of control

COc1ccc2c(c1)CC/C(=C\c1cccnc1)C2=O
inactive: [8] 110 % of control | [10] 96 % of control | [12] 94 % of control

O=S1(=O)CCCCC1c1ccccc1 (stereo unspecified)
inactive: [18] 87 % of control | [13] 98 % of control | endpoint: mean survival time, dose: 100.0 mg/kg/injection, schedule: Q04DX003 (ip), vehicle: saline 122 % of control | [19] 95 % of control | [15] 87 % of control | endpoint: mean survival time, dose: 200.0 mg/kg/injection, schedule: Q04DX003 (ip), vehicle: saline 97 % of control | [20] 93 % of control | endpoint: mean survival time, dose: 400.0 mg/kg/injection, schedule: Q04DX003 (ip), vehicle: saline 98 % of control

C1=C(c2ccccc2)c2ccccc2CC1
inactive: endpoint: mean survival time, dose: 50.0 mg/kg/injection, schedule: Q01DX001 (ip), vehicle: saline 96 % of control | [18] 102 % of control | [19] 106 % of control

CCCCCCCCCCCCCCCCCC(=O)OCC(COC(=O)CCCCCCCC(CO)CCCCCCCCC)OC(=O)CCCCCCCC(CO)CCCCCCCCC (stereo unspecified)
inactive: [21] 101 % of control | [22] 101 % of control | [23] 101 % of control

CC(=O)Nc1ccc(/C=N/NC(=O)CNC(=O)Nc2cccc(Cl)c2)cc1
inactive: endpoint: mean survival time, dose: 12.5 mg/kg/injection, schedule: Q01DX009 (ip), vehicle: saline with Tween-80 95 % of control | endpoint: mean survival time, dose: 25.0 mg/kg/injection, schedule: Q01DX009 (ip), vehicle: saline with Tween-80 95 % of control | [24] 87 % of control and 91 % of control

CN(C)/C=N/N1CCN(C)CC1
inactive: [14] 115 % of control | [16] 101 % of control | [17] 97 % of control

O=C(c1cccnc1)c1cc(-c2ccccn2)c(=O)n2ccccc12
inactive: endpoint: median survival time, dose: 25.0 mg/kg/injection, schedule: Q01DX009 (ip), vehicle: saline with Tween-80 100 % of control | endpoint: median survival time, dose: 50.0 mg/kg/injection, schedule: Q01DX009 (ip), vehicle: saline with Tween-80 108 % of control | endpoint: median survival time, dose: 100.0 mg/kg/injection, schedule: Q01DX009 (ip), vehicle: saline with Tween-80 91 % of control | endpoint: median survival time, dose: 200.0 mg/kg/injection, schedule: Q01DX009 (ip), vehicle: saline with Tween-80 95 % of control | endpoint: median survival time, dose: 400.0 mg/kg/injection, schedule: Q01DX009 (ip), vehicle: saline with Tween-80 91 % of control

O=C(O)CCC(NC(=O)/C=C/c1ccc([N+](=O)[O-])cc1)C(=O)O (stereo unspecified)
inactive: [21] 107 % of control | [22] 88 % of control | [23] 91 % of control

CC(C)(O)c1cccc(F)c1
inactive: [24] 90 % of control | endpoint: mean survival time, dose: 100.0 mg/kg/injection, schedule: Q01DX009 (ip), vehicle: saline with Tween-80 93 % of control | endpoint: mean survival time, dose: 200.0 mg/kg/injection, schedule: Q01DX009 (ip), vehicle: saline with Tween-80 121 % of control

CCCC[n+]1ccccc1Cc1ccccc1
inactive: endpoint: mean survival time, dose: 6.25 mg/kg/injection, schedule: Q04DX003 (ip), vehicle: saline 102 % of control | endpoint: mean survival time, dose: 12.5 mg/kg/injection, schedule: Q04DX003 (ip), vehicle: saline 97 % of control

CC(=O)Nc1nn[nH]n1
inactive: endpoint: mean survival time, dose: 100.0 mg/kg/injection, schedule: Q01DX001 (ip), vehicle: other 93 % of control | [1] 90 % of control | endpoint: mean survival time, dose: 100.0 mg/kg/injection, schedule: Q04DX003 (ip), vehicle: saline with Tween-80 94 % of control | endpoint: mean survival time, dose: 200.0 mg/kg/injection, schedule: Q01DX001 (ip), vehicle: other 96 % of control | [3] 91 % of control | endpoint: mean survival time, dose: 200.0 mg/kg/injection, schedule: Q04DX003 (ip), vehicle: saline with Tween-80 94 % of control | endpoint: mean survival time, dose: 400.0 mg/kg/injection, schedule: Q01DX001 (ip), vehicle: other 96 % of control | endpoint: mean survival time, dose: 400.0 mg/kg/injection, schedule: Q04DX003 (ip), vehicle: saline with Tween-80 90 % of control

O=C(O)CCSC(c1ccccc1)(c1ccccc1)c1ccccc1
inactive: endpoint: mean survival time, dose: 25.0 mg/kg/injection, schedule: Q01DX009 (ip), vehicle: saline 102 % of control | endpoint: mean survival time, dose: 50.0 mg/kg/injection, schedule: Q01DX009 (ip), vehicle: saline 103 % of control | [13] 96 % of control | [15] 100 % of control | endpoint: mean survival time, dose: 300.0 mg/kg/injection, schedule: Q01DX009 (ip), vehicle: saline 96 % of control | endpoint: mean survival time, dose: 400.0 mg/kg/injection, schedule: Q01DX009 (ip), vehicle: saline 96 % of control

CCOc1ccc(-n2c(=O)c(N=Nc3ccccc3OC)c(O)n(-c3ccccc3OC)c2=S)cc1
inactive: endpoint: mean survival time, dose: 50.0 mg/kg/injection, schedule: Q01DX001 (ip), vehicle: Klucel (hydroxypropylcellulose) (HPC) 91 % of control | endpoint: mean survival time, dose: 100.0 mg/kg/injection, schedule: Q01DX001 (ip), vehicle: Klucel (hydroxypropylcellulose) (HPC) 100 % of control | endpoint: mean survival time, dose: 200.0 mg/kg/injection, schedule: Q01DX001 (ip), vehicle: Klucel (hydroxypropylcellulose) (HPC) 87 % of control

O=C(Nc1ccccc1)c1ccccc1C(O)(c1ccccc1)c1ccccc1
inactive: [18] 97 % of control | [19] 86 % of control | [20] 102 % of control
